# From US6204293A, “Inhibitors of protein isoprenyl transferases” (University of Pittsburgh, priority 1998, dated 2001)
# Structures can show the parent of a compound that is named as a salt.
# Target: T1, Rat brain protein farnesyltransferase (Rattus norvegicus, UniProt Q02293+Q04631)
# T1 construct: Rat brain protein farnesyltransferase activity is measured; from tissue; host or cells: rat brain
# Assay: % inhibition of farnesylation, scintillation proximity assay with biotin-K Ras B fragment
# Format: biochemical
# Settings: Table 1; 1 × 10^-5 M
# Method in brief: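 Rat brain enzyme, purified through three steps, in a scintillation proximity assay kit with biotin-K Ras B fragment substrate at 0.1 mM final. Value is % inhibition of farnesylation.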
# T1 sequence (Q02293 whole entry, one chain of several): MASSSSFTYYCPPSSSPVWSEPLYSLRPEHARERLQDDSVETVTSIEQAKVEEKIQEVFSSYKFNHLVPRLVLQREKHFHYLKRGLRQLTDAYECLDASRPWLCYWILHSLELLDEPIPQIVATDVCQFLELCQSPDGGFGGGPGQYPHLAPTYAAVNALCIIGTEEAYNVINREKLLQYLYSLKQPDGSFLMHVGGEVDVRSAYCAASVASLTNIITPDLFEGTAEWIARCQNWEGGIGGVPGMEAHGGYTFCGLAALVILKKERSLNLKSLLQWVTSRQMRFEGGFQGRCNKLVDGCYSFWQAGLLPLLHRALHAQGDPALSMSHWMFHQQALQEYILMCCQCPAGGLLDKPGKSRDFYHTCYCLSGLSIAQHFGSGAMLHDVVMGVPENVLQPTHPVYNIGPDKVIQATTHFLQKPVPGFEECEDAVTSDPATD
row,% inhibition at 1 × 10^-5 M,SMILES
1,44%,CSCC[C@H](NC(=O)c1ccc(NC(=O)CCN)cc1-c1ccccc1)C(=O)O [Example 750]
2,58%,CSCC[C@H](NC(=O)c1ccc(NC(=O)c2cccc(N(C)C)c2)cc1-c1ccccc1)C(=O)O [Example 752]
3,55%,COc1cc(Cl)ccc1C(=O)Nc1ccc(C(=O)N[C@@H](CCSC)C(=O)O)c(-c2ccccc2)c1 [Example 753]
4,40%,COc1ccc(Br)c(C(=O)Nc2ccc(C(=O)N[C@@H](CCSC)C(=O)O)c(-c3ccccc3)c2)c1 [Example 754]
5,47%,COc1cc(I)c(C(=O)Nc2ccc(C(=O)N[C@@H](CCSC)C(=O)O)c(-c3ccccc3)c2)cc1OC [Example 756]
6,58%,CSCC[C@H](NC(=O)c1ccc(NC(=O)Cc2ccccc2[N+](=O)[O-])cc1-c1ccccc1)C(=O)O [Example 757]

# Same assay, conditions: Table 2; 1 × 10^-6 M
row,% inhibition at 1 × 10^-6 M,SMILES
1,84%,CNCC(=O)Nc1ccc(C(=O)N[C@@H](CCSC)C(=O)O)c(-c2ccccc2)c1 [Example 749]
2,32%,CSCC[C@H](NC(=O)c1ccc(NC(=O)C[C@H]2C[C@@H](C(C)=O)C2(C)C)cc1-c1ccccc1)C(=O)O [Example 751]
3,88%,CCSC[C@H](CC1CCCCC1)NCc1ccc(C(=O)N[C@@H](CCSC)C(=O)OCOC(=O)C(C)(C)C)c(-c2ccccc2C)c1 [Example 764]
4,76%,CCSC[C@H](CC1CCCCC1)NCc1ccc(C(=O)N(C)[C@@H](CCSC)C(=O)O)c(-c2ccccc2C)c1 [Example 765]
5,79%,CSCC[C@H](NC(=O)c1ccc(S(=O)(=O)NCCC2CCCCC2)cc1-c1ccccc1C)C(=O)O [Example 772]
6,41%,CSCC[C@H](NC(=O)c1ccc(S(=O)(=O)NC2CCN(Cc3ccccc3)CC2)cc1-c1ccccc1C)C(=O)O [Example 773]
7,48%,CSCC[C@H](NC(=O)c1ccc(S(=O)(=O)NCCN2CCCCC2)cc1-c1ccccc1C)C(=O)O [Example 774]
8,32%,CSCC[C@H](NC(=O)c1ccc(S(=O)(=O)NCCN2CCOCC2)cc1-c1ccccc1C)C(=O)O [Example 775]
9,36%,COc1ccc(CCNS(=O)(=O)c2ccc(C(=O)N[C@@H](CCSC)C(=O)O)c(-c3ccccc3C)c2)cc1OC [Example 776]
10,83%,CSCC[C@H](NC(=O)c1ccc(S(=O)(=O)NCCCn2ccnc2)cc1-c1ccccc1C)C(=O)O [Example 777]
11,96%,CSCC[C@H](NC(=O)c1ccc(CN(Cc2ccc(C(F)(F)F)cc2)c2ccccc2)cc1-c1ccccc1C)C(=O)O [Example 782]
12,88%,CSCC[C@H](NC(=O)c1ccc(C[C@H]2CC[C@@H](c3ccccc3)CC2)cc1-c1ccccc1C)C(=O)O [Example 790]
13,53%,CSCC[C@H](NC(=O)c1ccc(/C=C/c2ccccc2)cc1-c1ccccc1C)C(=O)O [Example 791]
14,89%,CSCC[C@H](NC(=O)c1ccc(/C=C/c2ccc(Oc3ccccc3)nn2)cc1-c1ccccc1C)C(=O)O [Example 810]
15,94%,CSCC[C@H](NC(=O)c1ccc(/C=C/c2cnc(Oc3ccccc3)cn2)cc1-c1ccccc1C)C(=O)O [Example 812]
16,95%,CSCC[C@H](NC(=O)c1ccc(CCc2cnc(Oc3ccccc3)cn2)cc1-c1ccccc1C)C(=O)O [Example 813]

row,SMILES,% inhibition at 1 × 10^-6 M
1,CSCC[C@H](NC(=O)c1ccc(S(=O)(=O)N(Cc2ccccc2)c2ccccc2)cc1-c1ccccc1C)C(=O)[O-].[Li+] [Example 768],67%
2,CSCC[C@H](NC(=O)c1ccc(-c2ccccc2-c2ccccc2)cc1-c1ccccc1C)C(=O)[O-].[Li+] [Example 786],34%
3,CSCC[C@H](NC(=O)c1ccc(-c2cccc(-c3ccccc3)c2)cc1-c1ccccc1C)C(=O)[O-].[Li+] [Example 787],70%
4,CSCC[C@H](NC(=O)c1ccc(-c2ccc(-c3ccccc3)cc2)cc1-c1ccccc1C)C(=O)[O-].[Li+] [Example 788],44%
5,CSCC[C@H](NC(=O)c1ccc(CCc2cccc(-c3ccccc3)c2)cc1-c1ccccc1C)C(=O)[O-].[Li+] [Example 793],94%
6,CCOC(=O)N1CCC(NCc2ccc(C(=O)N[C@@H](CCSC)C(=O)[O-])c(-c3ccccc3C)c2)CC1.[Li+] [Example 806],72%

# Same assay, conditions: Table 3; 1 × 10^-7 M
row,% inhibition at 1 × 10^-7 M,SMILES
1,56%,CSCC[C@H](NC(=O)c1ccc(NC(=O)CN)cc1-c1ccccc1)C(=O)O [Example 748]
2,90%,CSCC[C@H](NC(=O)c1ccc(CN(c2ccccc2)S(=O)(=O)c2ccccc2)cc1-c1ccccc1C)C(=O)O [Example 769]
3,91%,CSCC[C@H](NC(=O)c1ccc(CN(c2ccccc2)S(=O)(=O)c2ccc(C)cc2)cc1-c1ccccc1C)C(=O)O [Example 770]
4,91%,CSCC[C@H](NC(=O)c1ccc(CN(Cc2ccc(Cl)cc2)c2ccccc2)cc1-c1ccccc1C)C(=O)O [Example 781]
5,85%,CSCC[C@H](NC(=O)c1ccc(CCc2ccc(Oc3ccccc3)nn2)cc1-c1ccccc1C)C(=O)O [Example 811]

row,SMILES,% inhibition at 1 × 10^-7 M
1,CSCC[C@H](NC(=O)c1ccc(C=Cc2cncs2)cc1-c1ccccc1C)C(=O)[O-].[Li+] [Example 785],96%

# Same assay, conditions: Table 4; 1 × 10^-8 M
row,% inhibition at 1 × 10^-8 M,SMILES
1,84%,CSCC[C@H](NC(=O)c1ccc(CN(CCC2CCCCC2)C(=O)c2ccccc2)cc1-c1ccccc1C)C(=O)O [Example 762]
2,95%,CSCC[C@H](NC(=O)c1ccc(CN[C@H](CSC2CCCCC2)CC2CCCCC2)cc1-c1ccccc1C)C(=O)O [Example 766]
3,97%,CSCC[C@H](NC(=O)c1ccc(CN[C@H](CSc2ccccc2C)CC2CCCCC2)cc1-c1ccccc1C)C(=O)O [Example 767]
4,70%,COc1cccc(CN(Cc2ccc(C(=O)N[C@@H](CCSC)C(=O)O)c(-c3ccccc3C)c2)c2ccccc2)c1 [Example 779]
5,71%,CSCC[C@H](NC(=O)c1ccc(CN(c2ccccc2)S(=O)(=O)c2ccc(C(F)(F)F)cc2)cc1-c1ccccc1C)C(=O)O [Example 780]

# Same assay, conditions: read-out: % inhibition at 1 × 10^-6 M
row,SMILES,inhibition at 1 µM
1,"CSCC[C@H](NC(=O)c1ccc(COC2CCN(C(=O)OC(C)(C)C)CC2)cc1-c1ccccc1C)C(=O)O [Example 808, N-[4-(1-t-butoxycarbonylpiperidin-4-yloxymethyl)-2-(2-methylphenyl)benzoyl]methionine lithium salt]",88%
2,"CSCC[C@H](NC(=O)c1ccc(COC2(Cc3ccccc3)CCN(C(=O)OC(C)(C)C)CC2)cc1-c1ccccc1C)C(=O)O [Example 809, N-[4-(1-t-butoxycarbonyl-4-benzylpiperidin-4-yloxymethyl)-2-(2-methylphenyl)benzoyl]methionine lithium salt]",78%
3,"CSCC[C@H](NC(=O)c1ccc(COC2(c3ccccc3)CCN(C(=O)OC(C)(C)C)CC2)cc1-c1ccccc1C)C(=O)O [Example 816, N-[4-(1-t-butoxycarbonyl-4-phenylpiperidin-4-yloxymethyl)-2-(2-methylphenyl)benzoyl]methionine lithium salt]",87%

# Same assay, conditions: read-out: % inhibition at 1 × 10^-6 M; Table 2; 1 × 10^-6 M
row,inhibition at 1 µM,SMILES
1,84%,CSCC[C@H](NC(=O)c1ccc(CSc2nc(O)cc(Cc3ccccc3)n2)cc1-c1ccccc1C)C(=O)O [Example 744]
2,90%,"CSCC[C@H](NC(=O)c1ccc(COC2CCN(Cc3ccccc3)CC2)cc1-c1ccccc1C)C(=O)O [Example 807, N-[4-(1-benzylpiperidin-4-yloxymethyl)-2-(2-methylphenyl)benzoyl]methioninelithium salt]"

# Same assay, conditions: read-out: % inhibition at 1 × 10^-7 M
row,SMILES,inhibition at 0.1 µM
1,"CSCC[C@H](NC(=O)c1ccc(COc2ccc(Oc3ccccc3)cc2)cc1-c1ccccc1C)C(=O)O [Example 795, N-[4-(4-phenoxyphenoxymethyl)-2-(2-methylphenyl)benzoyl]methionine lithium salt]",87%
2,"CSCC[C@H](NC(=O)c1ccc(COC2CCC(NC(=O)OC(C)(C)C)CC2)cc1-c1ccccc1C)C(=O)O (some centres unmarked) [Example 817, N-[4-(4-t-butoxycarbonylaminocyclohexyloxymethyl)-2-(2-methylphenyl)benzoyl]methionine lithium salt]",60%

# Same assay, conditions: read-out: % inhibition at 1 × 10^-7 M; Table 3; 1 × 10^-7 M
row,inhibition at 0.1 µM,SMILES
1,49%,CSCC[C@H](NC(=O)c1ccc(CSc2nnc(N)s2)cc1-c1ccccc1C)C(=O)O [Example 734]
2,96%,CSCC[C@H](NC(=O)c1ccc(CSc2nnc[nH]2)cc1-c1ccccc1C)C(=O)O [Example 735]
3,83%,CSCC[C@H](NC(=O)c1ccc(CSc2ccccc2C(C)C)cc1-c1ccccc1C)C(=O)O [Example 739]
4,94%,CSCC[C@H](NC(=O)c1ccc(CSc2ccc(F)cc2)cc1-c1ccccc1C)C(=O)O [Example 740]
5,89%,CSCC[C@H](NC(=O)c1ccc(CSc2ccc(C)cc2C)cc1-c1ccccc1C)C(=O)O [Example 741]
6,51%,CSCC[C@H](NC(=O)c1ccc(CSc2nc(C)cc(C)n2)cc1-c1ccccc1C)C(=O)O [Example 743]
7,93%,CSCC[C@H](NC(=O)c1ccc(CSc2nc3ccccc3c(=O)[nH]2)cc1-c1ccccc1C)C(=O)O [Example 745]
8,84%,CSCC[C@H](NC(=O)c1ccc(CSc2ncnc3[nH]ncc23)cc1-c1ccccc1C)C(=O)O [Example 746]
9,68%,CSCC[C@H](NC(=O)c1ccc(CSc2ncnc3[nH]cnc23)cc1-c1ccccc1C)C(=O)O [Example 747]
10,78%,"CSCC[C@H](NC(=O)c1ccc(COCc2ccc(-c3ccc(Cl)cc3)o2)cc1-c1ccccc1C)C(=O)NS(C)(=O)=O [Example 818, N-[4-(5-(4-chlorophenyl)furan-2-ylmethoxymethyl)-2-(2-methylphenyl)benzoyl]methionine methanesulfonimide]"
